Measurements reported in patent US4347319A, “Microbiological epoxidation process” (priority 1980, dated 1982).

What was measured:
Pichia sp. NRRL-Y-11328 = test: Oxidation of sec-alcohols to ketones by cell suspensions of yeasts; type: cell-based; settings: sec-alcohol to methyl ketone
[1] = test system: Methylobacterium organophilum (CRL 26 R6) NRRL B-11,222; test: Oxidation by washed cell suspensions of methane-grown cells; type: cell-based; settings: methane-grown cells; isopropanol to acetone, 2-butanol to 2-butanone
How it was run: (§1)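 Methane-grown cells (30 °C, 2 days) washed and suspended in 0.15 M phosphate pH 7.0; 2 mg cells incubated at 30 °C, 300 rpm under substrate gas:oxygen 1:1 (10 μl for liquid substrates). Products sampled periodically and measured by flame-ionisation gas chromatography.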

[2] = test system: Methylococcus capsulatus (CRL M1) NRRL B-11,219; test: as above; type: cell-based; settings: methane-grown cells; isopropanol to acetone, 2-butanol to 2-butanone
How it was run: as §1

[3] = test system: Methylosinus trichosporium (CRL 15 PM1) NRRL B-11,202; test: as above; type: cell-based; settings: methane-grown cells; isopropanol to acetone, 2-butanol to 2-butanone
How it was run: as §1

[4] = test system: Methylomonas rubrum (CRL M6P) NRRL B-11,210; test: as above; type: cell-based; settings: methane-grown cells; isopropanol to acetone
How it was run: as §1

[5] = test system: Methylobacter chroococcum (CRL M6) NRRL B-11,214; test: as above; type: cell-based; settings: methane-grown cells; isopropanol to acetone, 2-butanol to 2-butanone
How it was run: as §1

[6] = test system: Methylobacter bovis CRL 19 NRRL B-11,217; test: Sec. alcohol oxidation by cell suspensions of methanol-grown cells; type: cell-based; settings: sec. alcohol to methyl ketone
Source text: (§2) In this example, the procedure of Example 1 was repeated except that a plurality of the methane-utilizing methylotrophic microorganisms of the invention were each aerobically grown in a methanol-containing nutrient medium instead of a methane-containing medium. The nutrients in the medium were the same as indicated in Example 1 except that 0.4% v/v methanol was used as the alcohol dehydrogenase enzyme inducer and major source of carbon and energy for growth. Following growth the cells were harvested and washed as described in Example 1. The resting cells of the induced methanol-grown methylotrophic microorganisms were then contacted with a […] under aerobic conditions in a buffered solution by the procedure described in Example 1.

[7] = test system: Methylococcus capsulatus CRL 25 NRRL B-11,221; test: as above; type: cell-based; settings: sec. alcohol to methyl ketone
Source text: as §2

[8] = test system: Methylomonas methanica CRL M4P NRRL B-11,205; test: as above; type: cell-based; settings: sec. alcohol to methyl ketone
Source text: as §2

[9] = test system: Methylobacter chroococcum CRL M6 NRRL B-11,214; test: as above; type: cell-based; settings: sec. alcohol to methyl ketone
Source text: as §2

[10] = test system: Methylococcus capsulatus CRL M1 NRRL B-11,219; test: as above; type: cell-based; settings: sec. alcohol to methyl ketone
Source text: as §2

[11] = test system: Methylobacter vinelandii CRL M5Y NRRL B-11,218; test: as above; type: cell-based; settings: sec. alcohol to methyl ketone
Source text: as §2

[12] = test system: Methylosinus trichosporium CRL 15 NRRL B-11,202; test: as above; type: cell-based; settings: sec. alcohol to methyl ketone
Source text: as §2

[13] = test system: Methylobacterium organophilum CRL 26 NRRL B-11,222; test: as above; type: cell-based; settings: sec. alcohol to methyl ketone
Source text: as §2

[14] = test system: Methylomonas streptobacterium CRL 17 PM3 NRRL B-11,208; test: as above; type: cell-based; settings: sec. alcohol to methyl ketone
Source text: as §2

[15] = test system: Methylocystis parvus CRL 18 NRRL B-11,204; test: as above; type: cell-based; settings: sec. alcohol to methyl ketone
Source text: as §2

[16] = test system: cell extract of Pichia sp. NRRL-Y-11,328; test: Oxidation of secondary alcohols to methylketone by cell extracts of yeasts; type: biochemical; settings: methanol-grown; cell extract + NAD^+; sec. alcohol to methyl ketone; gas chromatography
[17] = test system: Candida utilis ATCC 26387; test: Oxidation of sec-alcohols to ketones by cell suspensions of yeasts; type: cell-based; settings: sec-alcohol to methyl ketone
[18] = test system: Methylobacter bovis (CRL M1Y) NRRL B-11,216; test: Oxidation by washed cell suspensions of methane-grown cells; type: cell-based; settings: methane-grown cells; isopropanol to acetone, 2-butanol to 2-butanone
Protocol: The pH of the nutrient medium was adjusted to 7.0 by the addition of acid or base and 50 ml samples of the nutrient medium were charged into a plurality of 300 ml shaker flasks. The shaker flasks were inoculated with an inoculating loop of cells from an agar plate containing homogeneous colonies of the microorganisms on the plate (the purity of the isolates was confirmed by microscopic examination. The isolates had been maintained on agar plates under an atmosphere of methane and air having a 1:1 v/v gas ratio which had been transferred evey two weeks. The gaseous phase of the inoculated flasks was then replaced with a gas mixture comprised of methane and air having a ratio of 1:1 on a v/v basis. […]
The cells were harvested by centrifugation at 10,000×g. at 4° C. for 30 minutes. The cell pellet was washed twice with a 0.15 M phosphate buffer at a pH of 7.0 (containing 0.002 M MgCl2). The washed cells were then suspended in a 0.15 M phosphate buffer at pH 7.0.
A 0.5 ml sample of each washed cell suspension (2 mg cells) was put into 10 ml vials at 4° C. which were sealed with a rubber cap. The gaseous phase of the vials was removed with vacuum and then was replaced with a gas mixture of the oxidative substrate (e.g., methane) and oxygen at a 1:1 v/v ratio. The vials were then incubated at 30 ° C. on a rotary shaker at 300 rpm. Samples of product (3 μl) were withdrawn periodically with a microsyringe and the products were analyzed by gas chromatography (ionization flame detector column).
The newly discovered and isolated microorganism strains of the present invention were each grown aerobically in the presence of methane in the manner described above. The methane-grown microbial cells were then washed, recovered and put to use in oxidizing an oxidative substrate by the procedure described above except in the case of a liquid substrate 10 μl of the substrate were used.

[19] = test system: cell extract of Kloeckera sp. strain A2 NRRL-Y-11,420; test: Oxidation of secondary alcohols to methylketone by cell extracts of yeasts; type: biochemical; settings: methanol-grown; cell extract + NAD^+; sec. alcohol to methyl ketone; gas chromatography
[20] = test system: Hansenula polymorpha ATCC 26012; test: Oxidation of sec-alcohols to ketones by cell suspensions of yeasts; type: cell-based; settings: sec-alcohol to methyl ketone
[21] = test system: cell extract of Candida utilis ATCC 26,387; test: Oxidation of secondary alcohols to methylketone by cell extracts of yeasts; type: biochemical; settings: methanol-grown; cell extract + NAD^+; sec. alcohol to methyl ketone; gas chromatography
[22] = test system: Kloeckera sp. Strain A2 (NRRLY-11,420); test: Oxidation of sec-alcohols to ketones by cell suspensions of yeasts; type: cell-based; settings: sec-alcohol to methyl ketone
[23] = test system: cell extract of Torulopsis sp. strain A1 NRRL-Y-11,419; test: Oxidation of secondary alcohols to methylketone by cell extracts of yeasts; type: biochemical; settings: methanol-grown; cell extract + NAD^+; sec. alcohol to methyl ketone; gas chromatography
[24] = test system: cell extract of Hansenula polymorpha ATCC 26,012; test: as above; type: biochemical; settings: methanol-grown; cell extract + NAD^+; sec. alcohol to methyl ketone; gas chromatography
[25] = test system: purified secondary alcohol dehydrogenase from Pichia sp. NRRL Y-11,328; test: Substrate specificity, electron acceptor and stoichiometry of purified yeast SADH; type: biochemical; settings: examined spectrophotometrically
[26] = test system: purified secondary alcohol dehydrogenase (SADH) from Pseudomonas sp. ATCC 21439; test: Kinetics and substrate specificity of purified SADH; type: biochemical; settings: 2-butanol = 100%
[27] = test system: Torulopsis sp. Strain A1 (NRRLY-11,419); test: Oxidation of sec-alcohols to ketones by cell suspensions of yeasts; type: cell-based; settings: sec-alcohol to methyl ketone

Q: For `CC(C)O` [Isopropanol], which “Conversion Rate” value (Pichia sp. NRRL-Y-11328; growth substrate Ethanol) is on record?
A: The value was 4.5 μmoles/hr/mg of protein.

Q: And the “Conversion Rate” value (Pichia sp. NRRL-Y-11328; growth substrate Methanol)?
A: The value was 5.2 μmoles/hr/mg of protein.

Q: What about the “Conversion Rate” value (Pichia sp. NRRL-Y-11328; growth substrate Methylamine) of the same compound?
A: The value was 4.2 μmoles/hr/mg of protein.

Q: And the “Conversion Rate” value (Pichia sp. NRRL-Y-11328; growth substrate Methylformate)?
A: The value was 4.9 μmoles/hr/mg of protein.

Q: And the “Conversion Rate” value (Pichia sp. NRRL-Y-11328; growth substrate Propylamine)?
A: Its value is 3.2 μmoles/hr/mg of protein.

Q: And the “Conversion Rate to Ketone, 2 hrs.” value [1]?
A: The value was 3 μmole/2 mg protein.

Q: What about the “Conversion Rate to Ketone, 2 hrs.” value [2] of the same compound?
A: The value was 3 μmole/2 mg protein.

Q: And the “Conversion Rate to Ketone, 20 hrs.” value [2]?
A: Its value is 15 μmole/2 mg protein.

Q: What about the “Conversion Rate to Ketone, 2 hrs.” value [3] of the same compound?
A: Its value is 3 μmole/2 mg protein.

Q: And the “Conversion Rate to Ketone, 2 hrs.” value [4]?
A: Its value is 1 μmole/2 mg protein.

Q: What about the “Conversion Rate to Ketone, 2 hrs.” value [5] of the same compound?
A: The value was 1 μmole/2 mg protein.

Q: And the “Conversion Rate to Ketone, 20 hrs.” value [5]?
A: The value was 8 μmole/2 mg protein.

Q: And the “Conversion Rates” value [6]?
A: Its value is 0.40 μmoles/hr/mg protein.

Q: And the “Conversion Rates” value [7]?
A: The value was 0.62 μmoles/hr/mg protein.

Q: And the “Conversion Rates” value [8]?
A: The value was 2.0 μmoles/hr/mg protein.

Q: And the “Conversion Rates” value [9]?
A: The value was 1.0 μmoles/hr/mg protein.

Q: And the “Conversion Rates” value [10]?
A: The value was 5.0 μmoles/hr/mg protein.

Q: What about the “Conversion Rates” value [11] of the same compound?
A: Its value is 2.0 μmoles/hr/mg protein.

Q: And the “Conversion Rates” value [12]?
A: Its value is 0.50 μmoles/hr/mg protein.

Q: What about the “Conversion Rates” value [13] of the same compound?
A: Its value is 0.72 μmoles/hr/mg protein.

Q: What about the “Conversion Rates” value [14] of the same compound?
A: The value was 0.67 μmoles/hr/mg protein.

Q: And the “Conversion Rates” value [15]?
A: Its value is 0.25 μmoles/hr/mg protein.

Q: And the “Conversion Rate” value [16]?
A: Its value is 5.5 μmoles/hr/mg Protein.

Q: And the “Conversion Rate” value ([17]; growth substrate Ethanol)?
A: The value was 5.2 μmoles/hr/mg of protein.

Q: And the “Conversion Rate” value ([17]; growth substrate Methanol)?
A: Its value is 6.2 μmoles/hr/mg of protein.

Q: And the “Conversion Rate” value ([17]; growth substrate Methylamine)?
A: The value was 5.0 μmoles/hr/mg of protein.

Q: And the “Conversion Rate” value ([17]; growth substrate Methylformate)?
A: Its value is 5.6 μmoles/hr/mg of protein.

Q: And the “Conversion Rate” value ([17]; growth substrate Propylamine)?
A: The value was 4.2 μmoles/hr/mg of protein.

Q: What about the “Conversion Rate to Ketone, 2 hrs.” value [18] of the same compound?
A: Its value is 5 μmole/2 mg protein.

Q: And the “Conversion Rate” value [19]?
A: Its value is 4.8 μmoles/hr/mg Protein.

Q: What about the “Conversion Rate” value ([20]; growth substrate Ethanol) of the same compound?
A: The value was 5.0 μmoles/hr/mg of protein.

Q: What about the “Conversion Rate” value ([20]; growth substrate Methanol) of the same compound?
A: Its value is 5.9 μmoles/hr/mg of protein.

Q: What about the “Conversion Rate” value ([20]; growth substrate Methylamine) of the same compound?
A: Its value is 5.2 μmoles/hr/mg of protein.

Q: What about the “Conversion Rate” value ([20]; growth substrate Methylformate) of the same compound?
A: The value was 5.6 μmoles/hr/mg of protein.

Q: What about the “Conversion Rate” value ([20]; growth substrate Propylamine) of the same compound?
A: The value was 4.1 μmoles/hr/mg of protein.

Q: And the “Conversion Rate” value [21]?
A: Its value is 4.5 μmoles/hr/mg Protein.

Q: What about the “Conversion Rate” value ([22]; growth substrate Ethanol) of the same compound?
A: The value was 4.5 μmoles/hr/mg of protein.

Q: What about the “Conversion Rate” value ([22]; growth substrate Methanol) of the same compound?
A: Its value is 4.8 μmoles/hr/mg of protein.

Q: And the “Conversion Rate” value ([22]; growth substrate Methylamine)?
A: Its value is 4.0 μmoles/hr/mg of protein.

Q: What about the “Conversion Rate” value ([22]; growth substrate Methylformate) of the same compound?
A: The value was 4.9 μmoles/hr/mg of protein.

Q: And the “Conversion Rate” value ([22]; growth substrate Propylamine)?
A: Its value is 4.0 μmoles/hr/mg of protein.

Q: What about the “Conversion Rate” value [23] of the same compound?
A: Its value is 4.5 μmoles/hr/mg Protein.

Q: And the “Conversion Rate” value [24]?
A: The value was 4.8 μmoles/hr/mg Protein.

Q: And the “oxidation by the purified enzyme” value [25]?
A: Its value is “catalyzed the oxidation”.

Q: And the “relative percent rate of oxidation” value [26]?
A: The value was 85%.

Q: And the “Conversion Rate” value ([27]; growth substrate Ethanol)?
A: Its value is 4.2 μmoles/hr/mg of protein.

Q: And the “Conversion Rate” value ([27]; growth substrate Methanol)?
A: The value was 4.5 μmoles/hr/mg of protein.

Q: What about the “Conversion Rate” value ([27]; growth substrate Methylamine) of the same compound?
A: Its value is 4.3 μmoles/hr/mg of protein.

Q: What about the “Conversion Rate” value ([27]; growth substrate Methylformate) of the same compound?
A: Its value is 4.5 μmoles/hr/mg of protein.

Q: What about the “Conversion Rate” value ([27]; growth substrate Propylamine) of the same compound?
A: The value was 3.2 μmoles/hr/mg of protein.
